{"source": "patent US20160194299A1", "about": "(priority 2013, published 2016)", "tested_on": "Mtb", "assay": "microbe, parasite or virus in culture", "format": "cell-based, Mycobacterium tuberculosis", "conditions": "for MIC: Mycobacterium tuberculosis, read-out: MIC (II)"}
{"smiles": "CC(=O)Nc1cc(C(=O)Nc2sccc2S(C)(=O)=O)ccn1", "note": "[Compound 184]", "values": [{"measurement": "MIC", "value": "> 3", "unit": "µg/mL"}]}
{"smiles": "CCOC(=O)NC(=O)c1ccsc1NC(=O)c1cn2c(-c3ccc(C(F)(F)F)cc3)cnc2cn1", "note": "[Compound 202]", "values": [{"measurement": "MIC", "value": "> 3", "unit": "µg/mL"}]}
{"smiles": "CCOC(=O)NC(=O)c1ccsc1NC(=O)C1CCN(c2ccccn2)CC1", "note": "[Compound 155]", "values": [{"measurement": "MIC", "value": "> 3", "unit": "µg/mL"}]}
{"smiles": "CCOC(=O)NC(=O)c1ccsc1NC(=O)c1cccc(F)c1", "note": "[Compound 172]", "values": [{"measurement": "MIC", "value": "> 3", "unit": "µg/mL"}]}
{"smiles": "CCOC(=O)NC(=O)c1ccsc1NC(=O)c1ccc2[nH]c(C)nc2c1", "note": "[Compound 199]", "values": [{"measurement": "MIC (II)", "value": "C (key: A: <1 μg/mL; B: 1-3 μg/mL; C: >3 μg/mL)"}]}
{"smiles": "CCOC(=O)NC(=O)c1ccsc1NC(=O)c1ccc(OC)cc1", "note": "[Compound 174]", "values": [{"measurement": "MIC", "value": "> 3", "unit": "µg/mL"}]}
{"smiles": "CCNC(=O)Nc1cc(C(=O)Nc2sccc2C(=O)NC(=O)OCC)ccn1", "note": "[Compound 7]", "values": [{"measurement": "MIC", "value": "< 1", "unit": "µg/mL"}]}
{"smiles": "CCOC(=O)NC(=O)c1ccsc1NC(=O)c1ccc(C(C)(F)F)nc1", "note": "[Compound 157]", "values": [{"measurement": "MIC", "value": "> 3", "unit": "µg/mL"}]}
{"smiles": "CCOC(=O)N(C)C(=O)c1ccsc1NC(=O)c1ccnc(NC(C)=O)c1", "note": "[Compound 189]", "values": [{"measurement": "MIC", "value": "> 3", "unit": "µg/mL"}]}
{"smiles": "CCOC(=O)NC(=O)c1ccsc1NC(=O)C1CCCCC1", "note": "[Compound 177]", "values": [{"measurement": "MIC", "value": "> 3", "unit": "µg/mL"}]}
{"smiles": "C#CCNC(=O)[C@H](CCC1(C)N=N1)NC(=O)CCC(=O)Nc1cc(C(=O)Nc2sccc2C(=O)NC(=O)OCC)ccn1", "note": "[Compound 98]", "values": [{"measurement": "MIC", "value": "1 to 3", "unit": "µg/mL"}]}
{"smiles": "CCOC(=O)NC(=O)c1ccsc1NC(=O)c1ccnc(C(F)(F)F)c1", "note": "[Compound 178]", "values": [{"measurement": "MIC", "value": "> 3", "unit": "µg/mL"}]}
{"smiles": "COC(=O)Nc1cc(C(=O)Nc2sccc2C(=O)Nc2ccccn2)ccn1", "note": "[Compound 198]", "values": [{"measurement": "MIC", "value": "> 3", "unit": "µg/mL"}]}
{"smiles": "CC(=O)Nc1cc(C(=O)Nc2sccc2C(=O)N2CCOCC2)ccn1", "note": "[Compound 181]", "values": [{"measurement": "MIC", "value": "> 3", "unit": "µg/mL"}]}
{"smiles": "CCOC(=O)NC(=O)c1ccsc1NC(=O)c1ncccn1", "note": "[Compound 197]", "values": [{"measurement": "MIC", "value": "> 3", "unit": "µg/mL"}]}
{"smiles": "CCOC(=O)NC(=O)c1ccsc1NC(=O)c1csc(-c2ccncc2)n1", "note": "[Compound 2]", "values": [{"measurement": "MIC", "value": "1 to 3", "unit": "µg/mL"}]}
{"smiles": "CCOC(=O)NC(=O)c1ccsc1NC(=O)c1ccc2c(c1)nc(C(F)(F)F)n2C(C)C", "note": "[Compound 204]", "values": [{"measurement": "MIC", "value": "> 3", "unit": "µg/mL"}]}
{"smiles": "Cc1c(-c2ccccc2)sc(NC(=O)c2nc3ccccc3s2)c1C(=O)N1CCOCC1", "note": "[Compound 169]", "values": [{"measurement": "MIC", "value": "> 3", "unit": "µg/mL"}]}
{"smiles": "CCOC(=O)NC(=O)c1ccsc1NC(=O)c1ccc(Oc2ccc(F)cc2)cc1", "note": "[Compound 203]", "values": [{"measurement": "MIC", "value": "> 3", "unit": "µg/mL"}]}
{"smiles": "COC(=O)NC(=O)c1ccsc1NC(=O)c1ccc(S(=O)(=O)N2CCCC2)cc1", "note": "[Compound 5]", "values": [{"measurement": "MIC", "value": "< 1", "unit": "µg/mL"}]}
{"smiles": "CCOC(=O)NC(=O)c1ccsc1NC(=O)Cc1ccccc1", "note": "[Compound 171]", "values": [{"measurement": "MIC", "value": "> 3", "unit": "µg/mL"}]}
{"smiles": "CCOC(=O)NC(=O)c1ccsc1NC(=O)c1c(F)ccc(OC)c1F", "note": "[Compound 173]", "values": [{"measurement": "MIC", "value": "> 3", "unit": "µg/mL"}]}
{"smiles": "CCOC(=O)NC(=O)c1ccsc1NC(=O)c1ccc(S(C)(=O)=O)c([N+](=O)[O-])c1", "note": "[Compound 148]", "values": [{"measurement": "MIC", "value": "> 3", "unit": "µg/mL"}]}
{"smiles": "CCOC(=O)NC(=O)c1c(NC(=O)c2ccnc(NC(C)=O)c2)sc2c1CCN(CC)C2", "note": "[Compound 188]", "values": [{"measurement": "MIC", "value": "> 3", "unit": "µg/mL"}]}
{"smiles": "CCOC(=O)NC(=O)c1ccsc1NC(=O)c1ccc(S(C)(=O)=O)c(N)c1", "note": "[Compound 150]", "values": [{"measurement": "MIC", "value": "> 3", "unit": "µg/mL"}]}
{"smiles": "CCOC(=O)NC(=O)c1ccsc1NC(=O)c1c(F)cc(F)cc1F", "note": "[Compound 176]", "values": [{"measurement": "MIC", "value": "> 3", "unit": "µg/mL"}]}
{"smiles": "CCOC(=O)NC(=O)c1ccsc1NC(=O)c1sc2ncnc(O)c2c1C", "note": "[Compound 151]", "values": [{"measurement": "MIC", "value": "> 3", "unit": "µg/mL"}]}
{"smiles": "CCOC(=O)NC(=O)c1ccsc1NC(=O)c1ccncn1", "note": "[Compound 165]", "values": [{"measurement": "MIC", "value": "> 3", "unit": "µg/mL"}]}
{"smiles": "CC(=O)Nc1cc(C(=O)Nc2sccc2S(=O)(=O)c2ccccc2)ccn1", "note": "[Compound 156]", "values": [{"measurement": "MIC", "value": "> 3", "unit": "µg/mL"}]}
{"smiles": "CCOCCOCCOC(=O)NC(=O)c1ccsc1NC(=O)c1nc2ccccc2s1", "note": "[Compound 206]", "values": [{"measurement": "MIC", "value": "> 3", "unit": "µg/mL"}]}
{"smiles": "CCOC(=O)NC(=O)c1c(NC(=O)c2ccnc(NC(C)=O)c2)sc2c1CCCC2", "note": "[Compound 185]", "values": [{"measurement": "MIC", "value": "> 3", "unit": "µg/mL"}]}
{"smiles": "CCOC(=O)NC(=O)c1ccsc1NC(=O)c1ccnc(N)c1", "note": "[Compound 163]", "values": [{"measurement": "MIC", "value": "> 3", "unit": "µg/mL"}]}
{"smiles": "CC(C)c1nnc(NC(=O)c2ccsc2NC(=O)c2nc3ccccc3s2)o1", "note": "[Compound 160]", "values": [{"measurement": "MIC", "value": "> 3", "unit": "µg/mL"}]}
{"smiles": "CCOC(=O)NC(=O)c1ccsc1NC(=O)c1ccccn1", "note": "[Compound 167]", "values": [{"measurement": "MIC", "value": "> 3", "unit": "µg/mL"}]}
{"smiles": "CCOC(=O)NC(=O)c1ccsc1NC(=O)c1nc2cc(OC)ccc2s1", "note": "[Compound 6]", "values": [{"measurement": "MIC", "value": "< 1", "unit": "µg/mL"}]}
{"smiles": "CCOC(=O)NC(=O)c1ccsc1NC(=O)c1nn(C)c2ccccc12", "note": "[Compound 201]", "values": [{"measurement": "MIC", "value": "> 3", "unit": "µg/mL"}]}
{"smiles": "CCOC(=O)NC(=O)c1ccsc1NC(=O)c1ccnc(NC(=O)c2ccc(F)cc2)c1", "note": "[Compound 8]", "values": [{"measurement": "MIC", "value": "1 to 3", "unit": "µg/mL"}]}
{"smiles": "O=C(Nc1sccc1C(=O)NCc1ccccc1)c1nc2ccccc2s1", "note": "[Compound 191]", "values": [{"measurement": "MIC", "value": "> 3", "unit": "µg/mL"}]}
{"smiles": "CCOC(=O)NC(=O)c1ccsc1NC(=O)c1ccc2[nH]c(S)nc2c1", "note": "[Compound 162]", "values": [{"measurement": "MIC (II)", "value": "C (key: A: <1 μg/mL; B: 1-3 μg/mL; C: >3 μg/mL)"}]}
{"smiles": "CCOC(=O)NC(=O)c1ccsc1NC(=O)c1cc2cc(Cl)ccc2[nH]1", "note": "[Compound 196]", "values": [{"measurement": "MIC", "value": "> 3", "unit": "µg/mL"}]}
